Here are results for nine compounds from patent US20170009272A1, “IN-SILICO BASED TECHNIQUES IN THE IDENTIFICATION OF POTENT ß-GLUCORONIDASE INHIBITORS” (priority 2015, published 2017).

Data set [1] in a line: Cytotoxicity assay (MTT) on 3T3 mouse fibroblast cells. The format is cell-based. The following applies: 1-30 μM tested. The method, then:
(§1) Cytotoxicity assay Protocol: Cytotoxic activity of compounds was evaluated in 96-well flat-bottomed micro plates by using the standard MTT (3-[4,5-dimethylthiazole-2-yl]-2,5-diphenyl-tetrazolium bromide) colorimetric assay (15). For this purpose, 3T3 (mouse fibroblast) cells were cultured in Dulbecco's Modified Eagle Medium, supplemented with 5% of fetal bovine serum (FBS), 100 IU/ml of penicillin and 100 μg/ml of streptomycin in 75 cm^2 flasks, and kept in 5% CO2 incubator at 37° C. Exponentially growing cells were harvested, counted with haemocytometer and diluted with a particular medium. Cell culture with the concentration of 5×10^4 cells/ml was prepared and introduced (100 μL/well) into 96-well plates.
(§2) After overnight incubation, medium was removed and 200 μL of fresh medium was added with different concentrations of compounds (1-30 μM). After 48 hrs, 200 ptL MTT (0.5 mg/ml) was added to each well and incubated further for 4 hrs. Subsequently, 100 μLof DMSO was added to each well. The extent of MTT reduction to formazan within cells was calculated by measuring the absorbance at 540 nm, using a micro plate reader (Spectra Max plus, Molecular Devices, Calif., USA). The cytotoxicity was recorded as concentration causing 50% growth inhibition (IC50) for 3T3 cells. The percent inhibition was calculated by using the following formula
(§3) % inhibition=100−((mean of O.D of test compound−mean of O.D of negative control)/(mean of O.D of positive control−mean of O.D of negative control)*100).
(§4) The results (% inhibition) were processed by using Soft-Max Pro software (Molecular Device, USA).

A further data set addresses T1, β-glucoronidase (Escherichia coli, UniProt P05804).
T1 construct: purchased Sigma Aldrich G7396-25KU
Nature of the data set: β-Glucuronidase inhibition assay (spectrophotometric, p-nitrophenyl-β-D-glucuronide substrate). Type of data set: biochemical. The following applies: for % inhibition: test concentration not given. The method, then:
β-Glucuronidase inhibition assay protocol: Inhibitory activity of β-Glucuronidase was determined with the help of spectrophotometric method by measuring the absorbance at 405 nm of p-nitro phenol formed from the substrate (p-nitro phenyl-β-D-glucuronide, N1627-250 mg, Sigma Aldrich). The total reaction volume was 250 μL. The compound dissolved in DMSO (100%), which becomes 2% in the ultimate assay (250 μL) and the similar conditions were used for standard (D-saccharin acid 1,4-lactone, Sigma Aldrich). The reaction mixture contained 185 μL of 0.1 M acetate buffer, 5 μL of test compound solution, 10 μL of (1U) enzyme solution (G7396-25KU, Sigma Aldrich) was incubated at 37° C. for 30 min. The plates were read on a multiplate reader (SpectraMax plus 384) at 405 nm after the addition of 50 μL of 0.4 mM p-nitrophenyl-β-D-glucuronide. All assays were performed in triplicate. IC50 Values were calculated by using EZ-Fit software (Perrella Scientific Inc., Amherst, Mass., U.S.A.). These values are the mean of three independent readings.

Data set [2] relates to 3T3 (mouse fibroblast) cells. Nature of the data set: Cytotoxicity assay (MTT) on 3T3 mouse fibroblast cells. Type of data set: cell-based. The following applies: 48 hrs, 1-30 μM tested. The method, then:
as §1, §2, §3, §4

Where [3] appears, read: β-glucuronidase, 37° C., 30 min incubation, absorbance at 405 nm, mean of three readings, read-out: IC50.

Like-named read-outs stand apart in the source and are kept apart here.

T1 sequence (P05804 whole entry): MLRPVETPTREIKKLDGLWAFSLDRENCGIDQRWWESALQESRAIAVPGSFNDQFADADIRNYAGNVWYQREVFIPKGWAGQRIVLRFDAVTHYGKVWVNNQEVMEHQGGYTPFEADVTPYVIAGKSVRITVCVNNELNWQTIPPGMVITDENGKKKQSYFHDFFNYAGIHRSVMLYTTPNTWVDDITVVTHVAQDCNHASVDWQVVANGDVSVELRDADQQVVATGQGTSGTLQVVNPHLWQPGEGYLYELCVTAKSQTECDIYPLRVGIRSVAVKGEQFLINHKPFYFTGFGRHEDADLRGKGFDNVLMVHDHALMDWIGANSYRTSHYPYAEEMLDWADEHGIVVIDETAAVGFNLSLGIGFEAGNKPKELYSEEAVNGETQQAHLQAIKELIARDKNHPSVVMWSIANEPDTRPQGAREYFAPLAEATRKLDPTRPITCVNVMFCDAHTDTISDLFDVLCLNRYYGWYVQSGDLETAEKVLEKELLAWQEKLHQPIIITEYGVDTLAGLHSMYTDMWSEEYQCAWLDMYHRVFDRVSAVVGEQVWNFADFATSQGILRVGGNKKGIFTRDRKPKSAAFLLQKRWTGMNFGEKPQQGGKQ

Regarding `Oc1cccc(C(c2c[nH]c3ccc(Br)cc23)c2c[nH]c3ccc(Br)cc23)c1O` [Compound 1], the midpoint of inhibition in data set [1], the IC50 at 48 h, lay at 16.8 ± 0.997 µM. For the same compound, 1.2 ± 1.03 µM corresponded to half-maximal inhibition against β-glucoronidase (IC50). The % inhibition – broadly, the percentage by which the read-out fell short of the control – on β-glucoronidase (β-glucuronidase) amounted to 97.8%.

For the compound `O=C(/C=C/c1ccc(O)cc1)OC[C@@H]1C[C@H](Oc2cc(O)c3c(=O)cc(-c4ccc(O)cc4)oc3c2)[C@@H](O)[C@H](O)[C@H]1O` [Compound 3], the IC50 – broadly, the point on the concentration scale where inhibition reaches its midpoint – at 48 h in data set [1] was greater than 30 µM. The IC50 on β-glucoronidase (setting [3]) turned out to be 4.5 ± 0.44 µM. In addition, at β-glucoronidase (β-glucuronidase), the “% inhibition” value is reported as 96.9%.

The compound `COc1ccc(C=NN2C(c3n[nH]c(=S)[nH]3)=C(O)c3ccccc3S2(=O)=O)cc1OC` [Compound 5] displayed an IC50 at 48 h in data set [1] of 13.8 ± 0.967 µM. At β-glucoronidase, this compound returned an IC50 of 11.41 ± 0.04 µM. Also, the “% inhibition” value at β-glucoronidase (β-glucuronidase) turned out to be 78.1%.

With `C=S1(=O)c2ccccc2C(O)=C(c2n[nH]c(=S)[nH]2)N1/N=C/c1ccc(OC)c(OC)c1OC` (centres unmarked) [Compound 6], the concentration for half-maximal inhibition (IC50) at 48 h in data set [1] was 17.1 ± 1.41 µM. In addition, the IC50 on β-glucoronidase (setting [3]) came out at 11.8 ± 0.86 µM. For the same compound, on β-glucoronidase (β-glucuronidase), the “% inhibition” value came out at 81.0%.

`CCN(CC)c1ccc(/C=N/N2C(c3n[nH]c(=S)[nH]3)=C(O)c3ccccc3S2(=O)=O)cc1` [Compound 7]: the IC50 at 48 h in data set [1] was greater than 30 µM. On β-glucoronidase (setting [3]), the IC50 came to 14.7 ± 1.88 µM. Also, the “% inhibition” value at β-glucoronidase (β-glucuronidase) came to 95.1%.

Take `COc1cccc(/C=N/N2C(c3n[nH]c(=S)[nH]3)=C(O)c3ccccc3S2(=O)=O)c1O` [Compound 10]: half-maximal inhibition in data set [2] (IC50) was put at 19.5 ± 1.07 µM. At β-glucoronidase (β-glucuronidase), the “% inhibition” value was 93.4%.

`N#Cc1ccc2[nH]cc(C(c3ccccc3[N+](=O)[O-])c3c[nH]c4ccc(C#N)cc34)c2c1` [Compound 11] came in with an IC50 at 48 h in data set [1] of 9.56 ± 0.134 µM. On β-glucoronidase, this compound gave an IC50 of 34.9 ± 0.21 µM. In addition, the “% inhibition” value at β-glucoronidase (β-glucuronidase) worked out at 57.3%.

On to `O=C1OC(C(O)C(=O)O)C(O)C1O` [D-sacharric 1,4-lactone, D-saccharic acid, 1,4-lactone, reference compound], for which the IC50 at β-glucoronidase (setting [3]) is 45.5 ± 2.16 µM. Also, the “% inhibition” value on β-glucoronidase (β-glucuronidase) is recorded as 89.4%.

For `C[C@@H]1C[C@@H]([C@H](O)CC2CC(=O)NC(=O)C2)C(=O)[C@@H](C)C1` [cycloheximide, reference compound], 0.2 µM corresponded to half-maximal inhibition in data set [1] (IC50 at 48 h).
